In the NIST ThermoML archive (doi:10.1021/je900864n):

Legend:
[1] = 101.33 kPa, Liquid
[2] = refractive index (other wavelength) (dimensionless); details: 101 kPa, Liquid, Standard Abbe refractometry
[3] = refractive index (other wavelength) (dimensionless); wn = mass fraction of the nth substance listed; details: 101 kPa, Liquid, Wavelength=632.8 nm, Standard Abbe refractometry

CCCCn1cc[n+](C)c1.F[B-](F)(F)F [1-butyl-3-methylimidazolium tetrafluoroborate]
[1]
Details | mass density [kg/m3]
293.15 K | 1210.05
298.15 K | 1206.32
303.15 K | 1202.59
308.15 K | 1198.97
313.15 K | 1195.24

[2], Wavelength=632.8 nm
Details | refractive index
286.91 K | 1.4228
288.89 K | 1.4223
290.92 K | 1.4218
293.04 K | 1.4212
295.03 K | 1.4207
297.04 K | 1.4202
299.02 K | 1.4197
304.12 K | 1.4184
309.02 K | 1.4171
314.35 K | 1.4157
318.92 K | 1.4146

OCCCO [propan-1,3-diol]
[1]
Details | mass density [kg/m3]
293.15 K | 1053.48
298.15 K | 1050.28
303.15 K | 1047.26
308.15 K | 1044.11
313.15 K | 1040.94

[2], Wavelength=63.28 nm
Details | refractive index
287.46 K | 1.4396
288.88 K | 1.4392
290.94 K | 1.4387
293.1 K | 1.4381
295.16 K | 1.4375
297.02 K | 1.437
299.09 K | 1.4365
301.21 K | 1.4359

OCCCO [propan-1,3-diol] + CCCCn1cc[n+](C)c1.F[B-](F)(F)F
[3]
Details | refractive index
286.8 K, w2 = 0.698 | 1.424
286.81 K, w2 = 0.796 | 1.4233
287.24 K, w2 = 0.901 | 1.4228
288.87 K, w2 = 0.796 | 1.4228
288.88 K, w2 = 0.901 | 1.4224
289.37 K, w2 = 0.698 | 1.4234
290.78 K, w2 = 0.602 | 1.4239
290.86 K, w2 = 0.796 | 1.4223
291 K, w2 = 0.901 | 1.4219
291.2 K, w2 = 0.698 | 1.4229
292.89 K, w2 = 0.796 | 1.4218
292.95 K, w2 = 0.901 | 1.4214
293.29 K, w2 = 0.602 | 1.4232
293.3 K, w2 = 0.698 | 1.4223
294.94 K, w2 = 0.698 | 1.4219
294.99 K, w2 = 0.901 | 1.4209
295.08 K, w2 = 0.602 | 1.4227
295.86 K, w2 = 0.796 | 1.4211
296.02 K, w2 = 0.513 | 1.4235
296.98 K, w2 = 0.602 | 1.4222
297 K, w2 = 0.901 | 1.4204
297.16 K, w2 = 0.0947 | 1.4328
297.94 K, w2 = 0.698 | 1.4211
297.96 K, w2 = 0.796 | 1.4206
298.14 K, w2 = 0.513 | 1.4229
298.49 K, w2 = 0.0947 | 1.4325
298.98 K, w2 = 0.602 | 1.4217
299.51 K, w2 = 0.384 | 1.4245
299.54 K, w2 = 0.299 | 1.4263
299.6 K, w2 = 0.194 | 1.4289
300 K, w2 = 0.0947 | 1.4321
300 K, w2 = 0.513 | 1.4224
300 K, w2 = 0.901 | 1.4196
301.08 K, w2 = 0.194 | 1.4285
301.1 K, w2 = 0.602 | 1.4211
301.22 K, w2 = 0.384 | 1.424
301.4 K, w2 = 0.299 | 1.4258
301.52 K, w2 = 0.0947 | 1.4317
302.02 K, w2 = 0.513 | 1.4218
302.17 K, w2 = 0.194 | 1.4282
303.06 K, w2 = 0.0947 | 1.4313
303.53 K, w2 = 0.384 | 1.4234
303.55 K, w2 = 0.299 | 1.4252
304.01 K, w2 = 0.513 | 1.4212
304.13 K, w2 = 0.194 | 1.4276
304.93 K, w2 = 0.513 | 1.4209
305.12 K, w2 = 0.0947 | 1.4308
305.28 K, w2 = 0.384 | 1.4229
305.3 K, w2 = 0.299 | 1.4247
305.51 K, w2 = 0.194 | 1.4272
307.32 K, w2 = 0.194 | 1.4267
307.43 K, w2 = 0.299 | 1.4241
307.44 K, w2 = 0.384 | 1.4223
308.96 K, w2 = 0.384 | 1.4219
309.08 K, w2 = 0.299 | 1.4236
